Results from US12216122B2, “Compositions and methods relating to detection, inhibition, and imaging of indoleamine 2,3-dioxygenase 1 (IDO1)” (Regeneron Pharmaceuticals, Inc., priority 2019, dated 2025).
Where two headings read alike, the source gives them in different places. Bridge positions count the residues as written; N and C are the ends. Square brackets hold non-standard residues; d marks the D form. Triazole bridges read from a SMILES are 1,4-linked. Peptide text beside a SMILES is read from it. * marks the point of attachment. Biotinyl(3aR,4R,6aS) = O=C1N[C@@H]2[C@@H](CS[C@@H]2CCCCC(=O)*)N1; dTrp(1-Me) = Cn1cc(C[C@@H](N)C(=O)O)c2ccccc21; Lys(N3) = [N-]=[N+]=NCCCC[C@H](N)C(=O)O; AEEEA = NCCOCCOCCOCC(=O)O; Pra = C#CC[C@H](N)C(=O)O

Assays:
[1] = target: T1, His-tagged IDO1 human recombinant protein (Homo sapiens, UniProt P14902); test: IDO1 ELISA (Affinity Assay): sandwich ELISA, biotinylated ligand immobilized on NEUTRAVIDIN plate; assay type: binding
T1 construct: purchased BPS Biosciences 71182

murine IDO1 protein = murine IDO1 protein (Mus musculus, UniProt P28776); test: ELISA against murine IDO1 protein (species cross-reactivity); assay type: binding
Description: Protocol: A black 96-well NEUTRAVIDIN® Coated High Binding Capacity plate (15510, Pierce) was coated with 2 μM biotinylated macrocyclic peptide ligand in TBS (25 mM Tris-HCl, 150 mM NaCl, pH 7.6) for 2 h at room temperature. The plate was aspirated and then washed with Wash Buffer (0.05% (v/v) TWEEN® 20 in PBS, 6×). His-tagged IDO1 human recombinant protein (71182, BPS Biosciences) was serially diluted in Wash Buffer (from 200 to 0 nM) and incubated in the designated microwells for 1 h at room temperature. Microwells were aspirated and subsequently washed with Wash Buffer (11×). To detect the bound IDO1 protein, Alkaline Phosphatase (AP)-conjugated Anti-6×HIS TAG® antibody [HIS-1] (ab49746, Abcam) was prepared at 1:10,000 dilution and added to the microwells for 1 h at room temperature. The plate was aspirated and washed with Wash Buffer (5×). ATTOPHOS® AP Fluorescent Substrate System (S1000, Promega) was employed to develop the microwells. Using an excitation wavelength of 430 nm, fluorescent emission at 535 nm was recorded by Beckman Coulter DTX880 photometer. Titration curves were fit using a four-parameter regression curve fitting program to determine EC50 values.
To test for cross-reactivity with murine IDO1, the human IDO1 targeted macrocyclic peptide ligands were assayed against the murine IDO1 protein by ELISA.

[2] = target: T1, His-tagged IDO1 human recombinant protein; test: IDO1 ELISA (Affinity Assay): sandwich ELISA, biotinylated ligand immobilized on NEUTRAVIDIN plate; assay type: binding; settings: a solution of 200 nM macrocycle was immobilized; read-out: EC50, sandwich ELISA for human IDO1 protein against biotin-PEG3-modified macrocycle
[3] = Percent organic elution in reverse-phase HPLC (C18) as lipophilicity readout; assay type: physicochemical; settings: Table 12; C18, A=water+0.1% TFA, B=acetonitrile+0.1% TFA
Excerpt: The predicted increase in lipophilicity for wyvay (SEQ ID NO:2) was experimentally confirmed by the percent organic (% B) elution during reverse-phase HPLC (RP-HPLC) using a C18 column where solvents A=water+0.1% TFA and B=acetonitrile+0.1% TFA.

T1 sequence (P14902 whole entry): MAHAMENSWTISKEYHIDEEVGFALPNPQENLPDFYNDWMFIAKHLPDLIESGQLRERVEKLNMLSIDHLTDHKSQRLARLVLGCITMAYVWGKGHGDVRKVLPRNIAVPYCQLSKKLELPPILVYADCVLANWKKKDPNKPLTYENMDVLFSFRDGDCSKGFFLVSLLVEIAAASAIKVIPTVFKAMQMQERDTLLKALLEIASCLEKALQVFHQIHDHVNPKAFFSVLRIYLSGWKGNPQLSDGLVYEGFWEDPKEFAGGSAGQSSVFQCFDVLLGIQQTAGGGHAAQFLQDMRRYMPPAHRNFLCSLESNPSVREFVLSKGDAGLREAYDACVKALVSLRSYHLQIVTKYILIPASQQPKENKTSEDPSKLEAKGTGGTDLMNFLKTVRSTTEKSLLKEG
murine IDO1 protein, sequence (P28776 whole entry): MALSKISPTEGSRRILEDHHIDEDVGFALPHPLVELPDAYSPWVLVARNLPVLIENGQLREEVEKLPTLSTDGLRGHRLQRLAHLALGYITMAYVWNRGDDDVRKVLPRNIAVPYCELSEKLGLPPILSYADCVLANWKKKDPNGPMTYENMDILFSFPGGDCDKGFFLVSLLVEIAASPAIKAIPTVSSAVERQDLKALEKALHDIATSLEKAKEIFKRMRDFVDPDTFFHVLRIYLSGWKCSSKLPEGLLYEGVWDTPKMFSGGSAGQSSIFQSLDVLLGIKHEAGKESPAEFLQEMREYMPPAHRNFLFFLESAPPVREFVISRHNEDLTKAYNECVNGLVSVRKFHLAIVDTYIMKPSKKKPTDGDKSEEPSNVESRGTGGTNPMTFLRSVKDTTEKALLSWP

| SMILES | EC50 ([1]; Table 10, read-out: Human IDO EC50) | EC50 (murine IDO1 protein; Table 10, read-out: Mouse IDO EC50) | EC50 [2] | EC50 ([1]; 2 μM biotinylated macrocycle immobilized, human IDO1 titrated 200 to 0 nM, read-out: EC50, sandwich ELISA for human IDO1 protein against biotin-PEG3-modified macrocycle) | EC50 ([1]; Example 9, read-out: Binding affinity (EC50) of prioritized Epitope 1 hits) | EC50 ([1]; Table 12, read-out: EC50) | Selectivity human versus mouse IDO1 by ELISA (murine IDO1 protein; FIG. 2F) | HPLC % B [3] |
| --- | --- | --- | --- | --- | --- | --- | --- | --- |
| Cn1cc(C[C@H]2NC(=O)[C@@H](CO)NC(=O)[C@@H](Cc3ccc(O)cc3)NC(=O)[C@@H](CCCNC(=N)N)NC(=O)[C@@H](NC(=O)COCCOCCOCCNC(=O)CCCC[C@H]3SC[C@H]4NC(=O)N[C@H]43)Cc3cn(nn3)CCCC[C@@H](C(N)=O)NC(=O)[C@@H](CCCNC(=N)N)NC2=O)c2ccccc21 [rys(Me-Trp)r, biotin-PEG3-Cy(rys(Me-Trp)r)] ({Biotinyl(3aR,4R,6aS)-AEEEA}-[Pra][dR][dY][dS][dTrp(1-Me)][dR][Lys(N3)]-NH2; triazole 1-7) | 91 ± 22 nM | 17 nM | 81 nM |  |  |  |  |  |
| C[C@H]1NC(=O)[C@@H](CCCNC(=N)N)NC(=O)[C@@H](Cc2ccc(O)cc2)NC(=O)[C@@H](Cc2c[nH]c3ccccc23)NC(=O)[C@@H](NC(=O)COCCOCCOCCNC(=O)CCCC[C@H]2SC[C@H]3NC(=O)N[C@H]32)CC2=CC(CCCC[C@@H](C(N)=O)NC(=O)[C@@H](Cc3ccc(O)cc3)NC1=O)N=N2 (some centres unmarked) [wyray, biotin-PEG3-Cy(wyray)] |  |  |  | 25 nM | 25 nM | 25 nM | selectivity for the human recombinant protein over mouse is observed | 25.7% |
